Data taken from article PMC10421158, “In Vitro and In Silico Analysis of the Anticancer Effects of Eurycomanone and Eurycomalactone from Eurycoma longifolia” (Plants, 2023).
Read-outs that look alike come from different tables or passages of the source.

Legend:
[1] = test system: colorectal (HT29) cancer cell line; assay: Sulforhodamine B (SRB) cell viability assay, HT-29; assay type: cell-based; settings: read-out: IC50 HT-29
Description: (§1) The cancer cell lines used for this study were ovarian cancer (A2780), cervical cancer (HeLa) and colorectal cancer (HT29) as well as normal cardiomyocyte (H9C2) and liver (WRL-68) cell lines. All cell lines were purchased from American Type Culture Collections except A2780, which were purchased from the European Collection of Authenticated Cell Cultures. These cells were subcultured in Dulbecco’s Modified Eagle’s medium (Sigma-Aldrich, St. Louis, MO, USA) and supplemented with 10% fetal bovine serum (Sigma, USA), 1% penicillin–streptomycin (Sigma, USA), 1% amphotericin B (Sigma, USA) and 1% gentamicin (Sigma, USA). The cells were seeded in each well of 96 well plates and incubated in a humidified incubator at 37 °C and 5% carbon dioxide in air for 24 h. Each cell line was then treated with eurycomanone and eurycomalactone at five different concentrations (0.08, 0.4, 2, 10 and 50 µM) in triplicate. Cisplatin and methotrexate (Sigma, USA), known chemo-drugs, were also treated on these cell lines at five different concentrations (0.08, 0.4, 2, 10, 50 µM for cisplatin, 0.0008, 0.004, 0.02, 0.1, 0.5 µM for methotrexate) for the comparative studies. The treated cells were then incubated in the same incubator with the mentioned conditions for 72 h. The experiment was repeated at least three times.
(§2) Sulforhodamine B (SRB) assay had been performed after the treated cells were incubated for 72 h. Briefly, 50 μL of ice cold tricholoroacetic acid (TCA) was added to each well and allowed to stand for 30 min at room temperature, followed by rinsing each well with tap water. Then, 100 μL of 0.4% SRB was added to each well to stain living cells for 30 min followed by a rinse with 1% acetic acid. Finally, 100 μL of Tris buffer was added to each well and the optical density (OD) of the treated and nontreated cells were read at 492 nm with a Magellan V.4 microtiter plate reader (Tecan, Salzburg, Austria). The percentage of cell viability was calculated based on (OD492nm of the treated cells/OD492nm of the nontreated cells) × 100. The IC50 values were determined from the dose–response curve of percentage of cell viability versus the concentration of the compounds (μM). Cells viability assay for each treatment was performed in triplicate in at least three independent experiments, and the IC50 values are given as the mean ± SEM.

[2] = test system: ovarian (A2780), cervical (HeLa) and colorectal (HT29) cancer cells; assay: SRB assay, range over the three cancer cell lines; assay type: cell-based; settings: 72 h, read-out: range of IC50 values in cancer cell lines
Description: as §1
as §2, with “Briefly,” for “Sulforhodamine B (SRB) assay had been performed after the treated cells were incubated for 72 h. Briefly,”, “Cells viability assay for each treatment was performed in triplicate in at least three independent experiments, and the IC50 values are given as the mean ± SEM.” left out

[3] = test system: cardiomyocyte (H9C2) normal cell line; assay: Sulforhodamine B (SRB) cell viability assay, H9C2; assay type: cell-based; settings: read-out: IC50 H9C2
Description: as §1, §2

[4] = test system: liver (WRL-68) normal cell line; assay: Sulforhodamine B (SRB) cell viability assay, WRL-68; assay type: cell-based; settings: read-out: IC50 WRL-68
Description: as §1, §2

[5] = test system: ovarian (A2780) cancer cell line; assay: Sulforhodamine B (SRB) cell viability assay, A2780; assay type: cell-based; settings: read-out: IC50 A2780
Description: as §1
as §2, with “Briefly,” for “Sulforhodamine B (SRB) assay had been performed after the treated cells were incubated for 72 h. Briefly,”

[6] = test system: cervical (HeLa) cancer cell line; assay: Sulforhodamine B (SRB) cell viability assay, HeLa; assay type: cell-based; settings: 72 h, read-out: IC50 HeLa
Description: as §1, §2

[7] = test system: A2780 cells; assay: Apoptotic Hoechst 33342 assay, A2780; assay type: cell-based
Protocol: (§3) A2780, HT-29 and HeLa cancer cell lines were chosen for evaluating the apoptotic effects of eurycomanone and eurycomalactone. The morphological changes of cells undergoing apoptosis were visualised under a fluoresecence microscope after performing the Hoechst 33342 assay. Briefly, 10 × 10^4 cells were seeded for 500 µL/well of four Labtek® Chamber Slides (Thermo Fisher Scientific, Waltham, MA, USA) and incubated in 5% carbon dioxide in air for 24 h for the cells’ attachment. The cells were treated with concentrations of IC50/5, IC50 and IC50 × 5 values of eurycomanone and eurycomalactone in different wells and further incubated for 6, 24 and 48 h, respectively. Nontreated cells were also included in the experimental design, which acted as a negative control in this study. Following this, the media from each well were discarded and cells were fixed with 4% (w/v) paraformaldehyde for 30 min. The cells were then washed with cold phosphate buffer solution (PBS) prior to staining using Hoechst 33342, according to the method of [26]. Quantitative assessment of apoptotic cells were determined by counting apoptotic nuclei from five randomly chosen areas corroborating visual impression based on the morphology shown in Figure 3 and Figure 4. The apoptotic index (number of apoptotic nuclei per total nuclei × 100) was expressed as a percentage of the mean ± S.E.M and analysed using ANOVA followed by Tukey’s multiple comparison test.

[8] = test system: HeLa cells; assay: Apoptotic Hoechst 33342 assay, HeLa; assay type: cell-based
Protocol: as §3

[9] = test system: HT-29 cells; assay: Apoptotic Hoechst 33342 assay, HT-29; assay type: cell-based
Protocol: as §3

[10] = test system: Cytochrome P450 (CYP) enzymes; parameters: method as in PMID 23881640; settings: in vitro assay; cited from earlier work
[11] = parameters: method as in PMID 16206032; settings: in vivo, given orally; cited from earlier work
[12] = SRB, 72 h, normal cell line, mean ± SEM (n = 9)

| SMILES | Apoptotic index ([7]; A2780, IC50, 6 h) | Apoptotic index ([7]; A2780, IC50, 24 h) | Apoptotic index ([7]; A2780, IC50, 48 h) | Apoptotic index ([7]; A2780, IC50/5, 6 h) | Apoptotic index ([7]; A2780, IC50/5, 24 h) | Apoptotic index ([7]; A2780, IC50/5, 48 h) | Apoptotic index ([7]; A2780, IC50 × 5, 6 h) | Apoptotic index ([7]; A2780, IC50 × 5, 24 h) | Apoptotic index ([7]; A2780, IC50 × 5, 48 h) | IC50 ([1]; Homo sapiens, HT-29, 72 h) [nM] | IC50 [2] [nM] | IC50 ([3]; Rattus norvegicus, H9c2, 72 h) [nM] | Apoptotic index ([8]; IC50, 6 h) | Apoptotic index ([8]; IC50, 24 h) | Apoptotic index ([8]; IC50, 48 h) | Apoptotic index ([8]; IC50/5, 6 h) | Apoptotic index ([8]; IC50/5, 24 h) | Apoptotic index ([8]; IC50/5, 48 h) | Apoptotic index ([8]; IC50 × 5, 6 h) | Apoptotic index ([8]; IC50 × 5, 24 h) | also measured |
| --- | --- | --- | --- | --- | --- | --- | --- | --- | --- | --- | --- | --- | --- | --- | --- | --- | --- | --- | --- | --- | --- |
| CN(Cc1cnc2nc(N)nc(N)c2n1)c1ccc(C(=O)N[C@@H](CCC(=O)O)C(=O)O)cc1 [Methotrexate, reference compound] | – | – | – | – | – | – | – | – | – | – | – | – | – | – | – | – | – | – | – | – | IC50 ([1]; Homo sapiens, HT-29, SRB, 72 h, mean ± SEM (n = 9)): 59 ± 1 nM; IC50 ([2]; range over A2780, HeLa, HT29, SRB): 16 to 94 nM; IC50 ([3]; Rattus norvegicus, H9c2, SRB, 72 h, normal cell line, mean ± SEM (n = 9)): > 50000 nM; IC50 ([4]; Homo sapiens, WRL68, SRB, 72 h, normal cell line, mean ± SEM (n = 9)): 15 ± 0.41 nM; IC50 ([5]; Homo sapiens, A2780, SRB, 72 h, mean ± SEM (n = 9)): 16 ± 0.5 nM; IC50 ([6]; Homo sapiens, HeLa, SRB, mean ± SEM (n = 9)): 94 ± 4.3 nM |
| CC1=CC(=O)[C@@H](O)[C@@]2(C)[C@H]1CC(=O)[C@@]1(C)[C@H]3C(=O)O[C@H]([C@@H]3C)[C@H](O)[C@@H]12 [Eurycomalactone] | 4.26 ± 0.64 ^b/x % | 6.29 ± 0.21 ^ab/y % | 7.93 ± 2.28 ^b/xz % | 3.84 ± 0.10 ^a/x % | 4.12 ± 0.16 ^a/y % | 5.16 ± 0.065 ^a/xz,yz % | 15.81 ± 0.38 ^ac,bc/x % | Cells died and completely detached ^ac,bc/xy | Cells died and completely detached ^ac,bc/xz | 2210 ± 49 | 1600 to 2460 | 7000 ± 430 | 17.67 ± 0.77 ^ab/x % | 32.00 ± 1.57 ^ab/xy % | 36.71 ± 1.19 ^ab/xz,yz % | 5.45 ± 0.23 ^a/x % | 8.94 ± 0.21 ^a/xy % | 14.78 ± 0.12 ^a/xz,yz % | 31.87 ± 2.19 ^ac,bc/x % | 62.20 ± 1.35 ^ac,bc/xy % | Apoptotic index ([8]; IC50 × 5, 48 h): 100.00 ± 0.00 ^ac,bc/xz,yz %; Apoptotic index ([9]; HT-29, IC50, 6 h): 4.51 ± 0.23 ^b/x %; Apoptotic index ([9]; HT-29, IC50, 24 h): 12.41 ± 0.77 ^ab/xy %; Apoptotic index ([9]; HT-29, IC50, 48 h): 14.28 ± 0.84 ^ab/xz,yz %; Apoptotic index ([9]; HT-29, IC50/5, 6 h): 3.79 ± 0.45 ^a/x %; Apoptotic index ([9]; HT-29, IC50/5, 24 h): 7.71 ± 0.51 ^a/xy %; Apoptotic index ([9]; HT-29, IC50/5, 48 h): 8.86 ± 0.68 ^a/xz %; Apoptotic index ([9]; HT-29, IC50 × 5, 6 h): 6.52 ± 1.22 ^ac,bc/x %; Apoptotic index ([9]; HT-29, IC50 × 5, 24 h): 20.21 ± 1.52 ^ac,bc/xy %; Apoptotic index ([9]; HT-29, IC50 × 5, 48 h): 100.00 ± 0.00 ^ac,bc/xz,yz %; IC50 ([4]; Homo sapiens, WRL68, 72 h): 2710 ± 42 nM; IC50 ([5]; Homo sapiens, A2780, 72 h): 2460 ± 81 nM; IC50 ([6]; Homo sapiens, HeLa): 1600 ± 120 nM |
| N.N.[Cl][Pt][Cl] [Cisplatin, reference compound] | – | – | – | – | – | – | – | – | – | – | – | – | – | – | – | – | – | – | – | – | IC50 ([1]; SRB, 72 h, mean ± SEM (n = 9)): 1380 ± 37 nM; IC50 [3, 12]: 14100 ± 1140 nM; IC50 [4, 12]: 1130 ± 98 nM; IC50 ([5]; SRB, 72 h, mean ± SEM (n = 9)): 1770 ± 18 nM; IC50 ([6]; SRB, mean ± SEM (n = 9)): 1540 ± 120 nM |
| C=C1[C@@H](O)[C@]2(O)OC[C@]34[C@H]2[C@@]2(C)[C@H](O)C(=O)C=C(C)[C@@H]2C[C@H]3OC(=O)[C@H](O)[C@@]14O [Eurycomanone] | 8.48 ± 0.60 ^ab/x % | 13.13 ± 1.30 ^ab/y % | 31.74 ± 3.19 ^ab/xz,yz % | 4.30 ± 0.34 ^a/x % | 7.11 ± 1.60 ^a/xy % | 14.72 ± 0.59 ^a/xz,yz % | 13.01 ± 0.29 ^ac,bc/x % | 28.90 ± 0.93 ^ac,bc/xy % | 100.00 ± 0.00 ^ac,bc/xz,yz % | 1220 ± 110 | 1220 to 4580 | > 50000 | 19.98 ± 0.76 ^ab/x % | 52.57 ± 1.40 ^ab/y % | 61.16 ± 0.63 ^ab/xz,yz % | 8.42 ± 0.20 ^a/x % | 13.76 ± 1.26 ^a/xy % | 16.79 ± 0.92 ^a/xz,yz % | 41.37 ± 0.24 ^ac,bc/x % | 94.56 ± 1.16 ^ac,bc/xy % | inhibition of cytochromes in vitro [10]: no inhibition; oral bioavailability [11]: poorly bioavailable; Apoptotic index ([8]; IC50 × 5, 48 h): 100.00 ± 0.00 ^ac,bc/xz,yz %; Apoptotic index ([9]; HT-29, IC50, 6 h): 5.24 ± 0.17 ^b/x %; Apoptotic index ([9]; HT-29, IC50, 24 h): 6.30 ± 1.01 ^b/y %; Apoptotic index ([9]; HT-29, IC50, 48 h): 14.80 ± 0.56 ^ab/xz,yz %; Apoptotic index ([9]; HT-29, IC50/5, 6 h): 4.08 ± 0.81 ^a/x %; Apoptotic index ([9]; HT-29, IC50/5, 24 h): 4.18 ± 0.21 ^a/y %; Apoptotic index ([9]; HT-29, IC50/5, 48 h): 4.24 ± 0.20 ^a/z %; Apoptotic index ([9]; HT-29, IC50 × 5, 6 h): 5.97 ± 0.35 ^ac/x %; Apoptotic index ([9]; HT-29, IC50 × 5, 24 h): 10.95 ± 0.71 ^ac,bc/y %; Apoptotic index ([9]; HT-29, IC50 × 5, 48 h): 26.20 ± 1.48 ^ac,bc/xz,yz %; IC50 ([4]; Homo sapiens, WRL68, 72 h): 1340 ± 46 nM; IC50 ([5]; Homo sapiens, A2780, 72 h): 1370 ± 130 nM; IC50 ([6]; Homo sapiens, HeLa): 4580 ± 90 nM |
